The values below are quoted from earlier work in patent US20060029556A1, “Aqueous-alcoholic depigmenting gels” (GALDERMA RESEARCH & DEVELOPMENT, S.N.C., priority 2002, published 2006).

Read-outs that look alike come from different tables or passages of the source.

For `Oc1ccc(O)cc1` [hydroquinone], the incidence of irritation result reads like this: (hydroquinone concentration 10%) “relatively high”; (hydroquinone concentration of 2%) “virtually nonexistent”; (hydroquinone preparations with a 5% dose) “reduces greatly”.
